assay: not given; details: not given

Row | Structure (SMILES) | logP
1 | COc1ccc(N2Cn3c(nc4ccccc4c3=O)C2C)cc1 (stereo not given) | 1.73
2 | Cc1ccc(N2Cn3c(nc4ccccc4c3=O)C2C)cc1 (stereo not given) | 2.16
3 | CC1c2nc3ccccc3c(=O)n2CN1Cc1ccccc1 (stereo not given) | 1.74
4 | CC1c2nc3ccccc3c(=O)n2CN1CCc1ccccc1 (stereo not given) | 1.8
5 | CC1c2nc3ccccc3c(=O)n2CN1c1ccccc1 (stereo not given) | 1.78

assay: method code SF-AS, from DOI: 10.1080/01483919008048971; details: pH 5.0

Row | Structure (SMILES) | logD
6 | CCCN1Cn2c(nc3ccccc3c2=O)C1C (stereo not given) | 1.4
7 | CCN1Cn2c(nc3ccccc3c2=O)C1C (stereo not given) | 1.02
8 | CCCCN1Cn2c(nc3ccccc3c2=O)C1C (stereo not given) | 1.6
9 | CC1c2nc3ccccc3c(=O)n2CN1CCO (stereo not given) | 0.46
10 | CC1c2nc3ccccc3c(=O)n2CN1C (stereo not given) | 0.85
